Measured values reported in PubChem BioAssay AID1918942 (Molecular Pharmacology Branch, DTP, NCI, 2023).

Test system: 743489-274-T-PDC complex spheroid viability
Assay: Anticancer human tumor 743489-274-T-PDC patient-derived renal cell carcinoma cell line growth inhibition
Conditions: for IC50: curve of first compound; for viability, T/C: stronger effect = lower value
How it was run: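 Complex spheroids of tumor cells with HUVEC and human MSCs, exposed to iadademstat combined with other agents. Each agent tested in half-log steps from near clinical Cmax (else 10 microM top), DMSO ≤0.25%.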

[1] = second compound 0.1 µM, first compound 0.000316 µM
[2] = second compound 0.1 µM, first compound 0.001 µM
[3] = second compound 0.1 µM, first compound 0.00316 µM
[4] = second compound 0.1 µM, first compound 0.01 µM
[5] = second compound 0.1 µM, first compound 0.0316 µM
[6] = second compound 0.1 µM, first compound 0.1 µM
[7] = second compound 0.316 µM, first compound 0.000316 µM
[8] = second compound 0.316 µM, first compound 0.001 µM
[9] = second compound 0.316 µM, first compound 0.00316 µM
[10] = second compound 0.316 µM, first compound 0.01 µM
[11] = second compound 0.316 µM, first compound 0.0316 µM
[12] = second compound 0.316 µM, first compound 0.1 µM
[13] = second compound 1 µM, first compound 0.000316 µM
[14] = second compound 1 µM, first compound 0.001 µM
[15] = second compound 1 µM, first compound 0.00316 µM
[16] = second compound 1 µM, first compound 0.01 µM
[17] = second compound 1 µM, first compound 0.0316 µM
[18] = second compound 1 µM, first compound 0.1 µM
[19] = second compound 3.16 µM, first compound 0.000316 µM
[20] = second compound 3.16 µM, first compound 0.001 µM
[21] = second compound 3.16 µM, first compound 0.00316 µM
[22] = second compound 3.16 µM, first compound 0.01 µM
[23] = second compound 3.16 µM, first compound 0.0316 µM
[24] = second compound 3.16 µM, first compound 0.1 µM
[25] = second compound 10 µM, first compound 0.000316 µM
[26] = second compound 10 µM, first compound 0.001 µM
[27] = second compound 10 µM, first compound 0.00316 µM
[28] = second compound 10 µM, first compound 0.01 µM
[29] = second compound 10 µM, first compound 0.0316 µM
[30] = second compound 10 µM, first compound 0.1 µM
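Further: spheroids exposed to compounds for 7 days before readout.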
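Wherever viability, T/C is given: 100% = DMSO vehicle control wells.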

CC[C@@]1(O)C(=O)OCc2c1cc1n(c2=O)Cc2cc3c(CN(C)C)c(O)ccc3nc2-1 + NC1CCC(NC2CC2c2ccccc2)CC1
IC50 (second compound 0.1 µM): > 0.1 µM | IC50 (second compound 0.316 µM): > 0.1 µM | IC50 (second compound 1 µM): > 0.1 µM | IC50 (second compound 3.16 µM): > 0.1 µM | IC50 (second compound 10 µM): > 0.1 µM | viability, T/C [1]: 119% | viability, T/C [2]: 103% | viability, T/C [3]: 116% | viability, T/C [4]: 89.5% | viability, T/C [5]: 75.6% | viability, T/C [6]: 89.9% | viability, T/C [7]: 107% | viability, T/C [8]: 122% | viability, T/C [9]: 114% | viability, T/C [10]: 93.3% | viability, T/C [11]: 96.5% | viability, T/C [12]: 81.1% | viability, T/C [13]: 120% | viability, T/C [14]: 122% | viability, T/C [15]: 90.3% | viability, T/C [16]: 95.5% | viability, T/C [17]: 77.8% | viability, T/C [18]: 81.8% | viability, T/C [19]: 120% | viability, T/C [20]: 110% | viability, T/C [21]: 115% | viability, T/C [22]: 78.2% | viability, T/C [23]: 87.3% | viability, T/C [24]: 71.2% | viability, T/C [25]: 120% | viability, T/C [26]: 127% | viability, T/C [27]: 101% | viability, T/C [28]: 104% | viability, T/C [29]: 85.1% | viability, T/C [30]: 78.9%

CC[C@@]1(O)C(=O)OCc2c1cc1n(c2=O)Cc2cc3c(CN(C)C)c(O)ccc3nc2-1 + NC1CC1c1ccc(-c2cccc(O)c2)cc1
IC50 (second compound 0.1 µM): > 0.1 µM | IC50 (second compound 0.316 µM): > 0.1 µM | IC50 (second compound 1 µM): > 0.1 µM | IC50 (second compound 3.16 µM): 0.0587 µM | IC50 (second compound 10 µM): > 0.1 µM | viability, T/C [1]: 98.9% | viability, T/C [2]: 95.7% | viability, T/C [3]: 104% | viability, T/C [4]: 97.8% | viability, T/C [5]: 66.4% | viability, T/C [6]: 55.7% | viability, T/C [7]: 103% | viability, T/C [8]: 99.6% | viability, T/C [9]: 89.7% | viability, T/C [10]: 74.3% | viability, T/C [11]: 67.9% | viability, T/C [12]: 53.9% | viability, T/C [13]: 97.7% | viability, T/C [14]: 100% | viability, T/C [15]: 80% | viability, T/C [16]: 76.3% | viability, T/C [17]: 68.5% | viability, T/C [18]: 55.3% | viability, T/C [19]: 101% | viability, T/C [20]: 86.7% | viability, T/C [21]: 78.3% | viability, T/C [22]: 69.9% | viability, T/C [23]: 53.8% | viability, T/C [24]: 45% | viability, T/C [25]: 120% | viability, T/C [26]: 93% | viability, T/C [27]: 90.6% | viability, T/C [28]: 70.5% | viability, T/C [29]: 77.6% | viability, T/C [30]: 50.3%

COc1ccc([C@@H](O)c2cc(-c3ncnc4cc(N5CCOCC5)ccc34)c(F)cc2Cl)nn1 + NC1CCC(NC2CC2c2ccccc2)CC1
IC50 (second compound 0.1 µM): 2.81 µM | IC50 (second compound 0.316 µM): 2.31 µM | IC50 (second compound 1 µM): 1.67 µM | IC50 (second compound 3.16 µM): 1.85 µM | IC50 (second compound 10 µM): 1.9 µM | viability, T/C [5]: 110% | viability, T/C [6]: 109% | viability, T/C (second compound 0.1 µM, first compound 0.316 µM): 87.2% | viability, T/C (second compound 0.1 µM, first compound 1 µM): 70.9% | viability, T/C (second compound 0.1 µM, first compound 3.16 µM): 47.1% | viability, T/C (second compound 0.1 µM, first compound 10 µM): 34.9% | viability, T/C [11]: 125% | viability, T/C [12]: 121% | viability, T/C (second compound 0.316 µM, first compound 0.316 µM): 99% | viability, T/C (second compound 0.316 µM, first compound 1 µM): 65.9% | viability, T/C (second compound 0.316 µM, first compound 3.16 µM): 46.9% | viability, T/C (second compound 0.316 µM, first compound 10 µM): 18.6% | viability, T/C [17]: 125% | viability, T/C [18]: 112% | viability, T/C (second compound 1 µM, first compound 0.316 µM): 101% | viability, T/C (second compound 1 µM, first compound 1 µM): 61.6% | viability, T/C (second compound 1 µM, first compound 3.16 µM): 34.1% | viability, T/C (second compound 1 µM, first compound 10 µM): 19.4% | viability, T/C [23]: 124% | viability, T/C [24]: 123% | viability, T/C (second compound 3.16 µM, first compound 0.316 µM): 92.9% | viability, T/C (second compound 3.16 µM, first compound 1 µM): 62.2% | viability, T/C (second compound 3.16 µM, first compound 3.16 µM): 41.6% | viability, T/C (second compound 3.16 µM, first compound 10 µM): 17% | viability, T/C [29]: 117% | viability, T/C [30]: 120% | viability, T/C (second compound 10 µM, first compound 0.316 µM): 102% | viability, T/C (second compound 10 µM, first compound 1 µM): 66.1% | viability, T/C (second compound 10 µM, first compound 3.16 µM): 38.2% | viability, T/C (second compound 10 µM, first compound 10 µM): 26.4%
